Assay results published in patent US8679513B2, “Cosmetic use of a jasmonic acid derivative for treating the hair and the scalp” (L'Oreal, priority 2009, dated 2014).

Tested on: human epidermoid keratinocytes in culture (HaCaT) exposed to UV radiation
Experiment: Evaluation of the antioxidant potential: DCFH-DA test
Type: cell-based
Conditions: HaCaT keratinocytes pretreated 24 hours; DCFH-DA 20 μM 30 minutes; 2 J/cm^2 UVA; compound used as 30% solution in water/dipropylene glycol (70/30); preliminary tests
Method: Evaluation of the Antioxidant Potential: DCFH-DA Test
The sodium salt of 3-hydroxy-2-pentylcyclopentane-acetic acid is used as a 30% solution in a water/dipropylene glycol mixture (70/30).
In a model of human epidermoid keratinocytes in culture (HaCaT) exposed to UV radiation, the global oxidative stress effect of the said compound after oxidation of a fluorescent probe (DCFH-DA) is measured.
The use of DCFH-DA as a marker of intracellular global oxidative stress is based on its physicochemical properties. It is a nonionic apolar molecule that is capable of diffusing across cell membranes. Once inside the cell, DCFH-DA is hydrolysed by intracellular esterases to a non-fluorescent compound: DCFH or 2,7-dichlorofluorescine. In the presence of activated oxygen species (H2O2; OH°), DCFH is rapidly oxidized to a highly fluorescent compound: DCF or 2,7-dichlorofluorescein.
HaCaT keratinocytes pretreated with the active agents for 24 hours are rinsed with PBS+ and incubated in the presence of DCFH-DA [20 μM] for 30 minutes at 37° C. in the dark.
After removal of the probe, the cells are exposed to 2 J/cm^2 of UVA (WG335 filter) in the presence of 1 ml/well of PBS+. The DCF fluorescence is evaluated immediately after the UVA exposure, by spectrofluorimetry (excitation 480 nm; emission 530 nm).

CCCCCC1C(O)CCC1CC(=O)[O-].[Na+] (stereo not shown) [sodium salt of 3-hydroxy-2-pentylcyclopentaneacetic acid]
antioxidant potential / protection against oxidative stress (DCF fluorescence): antioxidant potential with protection against oxidative stress
